Test results published in BigSolDB 2.1.

Cc1cc([N+](=O)[O-])ccc1N
solubility (mole fraction)
Conditions | in ethyl acetate | in isopropanol | in methanol | in n-butanol | in n-propanol | in toluene
278.15 K | – | 0.00459 | 0.00834 | 0.00492 | 0.00631 | 0.00159
280.65 K | – | 0.00511 | 0.00913 | 0.00552 | 0.00701 | 0.00178
283.15 K | – | 0.00572 | 0.0101 | 0.00618 | 0.00776 | 0.00204
285.65 K | – | 0.00635 | 0.0109 | 0.00691 | 0.00853 | 0.0023
288.15 K | – | 0.00707 | 0.0119 | 0.00778 | 0.00939 | 0.00258
290.65 K | – | 0.00781 | 0.0131 | 0.00858 | 0.0103 | 0.00285
293.15 K | – | 0.00865 | 0.0142 | 0.00951 | 0.0113 | 0.00317
295.65 K | – | 0.00961 | 0.0155 | 0.0106 | 0.0124 | 0.00353
298.15 K | – | 0.0106 | 0.0168 | 0.0118 | 0.0136 | 0.00391
300.65 K | – | 0.0118 | 0.018 | 0.0131 | 0.0148 | 0.00439
303.15 K | 0.125 | 0.0129 | 0.0198 | 0.0145 | 0.0162 | 0.0048
305.65 K | 0.133 | 0.0142 | 0.0213 | 0.016 | 0.0176 | 0.00527
308.15 K | 0.142 | 0.0157 | 0.0231 | 0.0177 | 0.0192 | 0.00584
310.65 K | 0.151 | 0.0172 | 0.0249 | 0.0196 | 0.0209 | 0.00645
313.15 K | 0.16 | 0.0189 | 0.027 | 0.0216 | 0.0227 | 0.00714
